In brackets after ≈: the same amount, converted by molar mass. Where two headings read alike, the source gives them in different places. No end group written: not given here.
Columns and labels:
C. accolens KPL 1818 = test: MIC/MLC assay against C. accolens KPL 1818; type: cell-based; details: THyex broth with 1% Tween 80
S. aureus ATCC 25923 = test: MIC/MLC assay against S. aureus; type: cell-based, Staphylococcus aureus; details: Table 11
S. pneumoniae ATCC 27336 = type: cell-based, Streptococcus pneumoniae; details: for S. pneumonia ATCC 27336 MIC / S. pneumonia ATCC 27336 MLC: Table 11; for MIC (μg/mL) S. pneumoniae: Table 7, S. pneumoniae ATCC 27336
Method: Minimum Inhibitory Concentrations (MICs) were determined according to previously published protocol^31. A stock solution of the antibiotics tested was first suspended in 50% acetonitrile (ACN) at a concentration 640 μg/mL. This stock was subsequently diluted 2-fold until a final concentration 0.156 μg/mL was reached. Subsequently, 10 μl of each dilution was placed into a well on a 96 well microtiter plate. M. luteus ATCC 10240, S. pneumoniae, and B. subtilis PY79 were grown overnight in THyex at 37° C. Cultures were diluted in the morning to 0.1 OD600 and allowed to grow to 0.6 OD600. This culture was diluted a 100-fold in fresh THyex media and then 400 μl of this culture was added to 10 mL of fresh THyex. The suspension contains approximately 10^5 colony forming units (CFUs). The bacterial suspension (190 μL) was added to each well containing 10 μL of antibiotic suspension or solvent blank. […] Following the 15 minute pretreatment, 190 μL was added to each well as described above. The MIC is described as the […] concentration of antibiotic that prevented visible growth after 24 hours. […]

C. accolens ATCC 49725 = test: MIC/MLC assay against C. accolens ATCC 49725; type: cell-based; details: THyex broth with 1% Tween 80
M. luteus ATCC 10240 = type: cell-based, Micrococcus luteus; details: for M. luteus ATCC 10240 MIC / M. luteus ATCC 10240 MLC: Table 11; for MIC (μg/mL) M. luteus: Table 7, chemically modified analogs
Method: Minimum Inhibitory Concentrations (MICs) were determined according to previously published protocol^31. A stock solution of the antibiotics tested was first suspended in 50% acetonitrile (ACN) at a concentration 640 μg/mL. This stock was subsequently diluted 2-fold until a final concentration 0.156 μg/mL was reached. Subsequently, 10 μl of each dilution was placed into a well on a 96 well microtiter plate. M. luteus ATCC 10240, S. pneumoniae, and B. subtilis PY79 were grown overnight in THyex at 37° C. Cultures were diluted in the morning to 0.1 OD600 and allowed to grow to 0.6 OD600. This culture was diluted a 100-fold in fresh THyex media and then 400 μl of this culture was added to 10 mL of fresh THyex. The suspension contains approximately 10^5 colony forming units (CFUs). The bacterial suspension (190 μL) was added to each well containing 10 μL of antibiotic suspension or solvent blank. […] Following the 15 minute pretreatment, 190 μL was added to each well as described above. The MIC is described as the […] concentration of antibiotic that prevented visible growth after 24 hours.
FIG. 11 illustrates the bioactivity of various core peptide mutants of mutacin 1130. The activity of the core mutant peptides is expressed as a ratio of the area of the zone of inhibition of each mutant strain to the area of the zone of inhibition of the wild-type strain against indicator strain of Micrococcus luteus. […] The deferred antagonism assay is an overlay assay of the indicator strain onto plates containing heat killed colonies of the mutacin producer strain after growing overnight. Core peptide mutants having inhibitory activity were isolated and the purified products were further evaluated by a standard minimum inhibitory concentration (MIC) assay.

[1] = listed as diaminoheptane conjugate

Compound	C. accolens KPL 1818 MIC (C. accolens KPL 1818) [micrograms per milliliter]	S. aureus ATCC 25923 MIC (S. aureus ATCC 25923) [micrograms per milliliter]	S. pneumonia ATCC 27336 MIC (S. pneumoniae ATCC 27336) [micrograms per milliliter]	C. accolens ATCC 49725 MIC (C. accolens ATCC 49725) [micrograms per milliliter]	M. luteus ATCC 10240 MIC (M. luteus ATCC 10240) [micrograms per milliliter]	C. accolens KPL 1818 MLC (C. accolens KPL 1818) [micrograms per milliliter]	S. aureus ATCC 25923 MLC (S. aureus ATCC 25923) [micrograms per milliliter]	S. pneumonia ATCC 27336 MLC (S. pneumoniae ATCC 27336) [micrograms per milliliter]	C. accolens ATCC 49725 MLC (C. accolens ATCC 49725) [micrograms per milliliter]	M. luteus ATCC 10240 MLC (M. luteus ATCC 10240) [micrograms per milliliter]	MIC (μg/mL) M. luteus (M. luteus ATCC 10240; listed as chlorophenylalanine conjugate) [µg/mL]	MIC (μg/mL) S. pneumoniae (S. pneumoniae ATCC 27336; listed as di-chlorophenylalanine conjugate) [µg/mL]	MIC (μg/mL) S. pneumoniae (S. pneumoniae ATCC 27336; [1]) [µg/mL]	MIC (μg/mL) M. luteus (M. luteus ATCC 10240) [µg/mL]	MIC (μg/mL) M. luteus (M. luteus ATCC 10240; [1]) [µg/mL]	MIC (μg/mL) S. pneumoniae (S. pneumoniae ATCC 27336) [µg/mL]
S5A:A12S un-dehydrated: core peptide mutant of mutacin 1140, positions 5, 12 replaced by Alanine and Serine; un-dehydrated form (FKSWALCTPGCSRTGSFNSYCC; ends and bridges not checked; cysteine pairing not given here; UniProt O68586 42-63, looked up, variant S5A A12S)	–	16	0.125	–	0.125	–	16	0.125	–	0.25	–	–	–	–	–	–
C=C1NC(=O)[C@H](Cc2c[nH]c3ccccc23)NC(=O)[C@H](NC(=O)[C@H](CCCCN)NC(=O)[C@@H](N)Cc2ccccc2)CSC[C@@H](C(=O)N[C@H]2C(=O)N3CCC[C@H]3C(=O)NCC(=O)N[C@H](C(=O)N[C@@H](C)C(=O)N[C@@H](CCCNC(=N)N)C(=O)N/C(=C\C)C(=O)NCC(=O)N[C@@H]3CSC[C@@H]4NC(=O)[C@H](Cc5ccc(O)cc5)NC(=O)[C@@H](CSC[C@@H](C(=O)NCc5ccc(Cl)cc5)NC4=O)NC(=O)[C@H](CC(N)=O)NC(=O)[C@H](Cc4ccccc4)NC3=O)CS[C@H]2C)NC(=O)[C@H](CC(C)C)NC1=O [Mutacin 1140 - chlorophenylalanine]	–	–	–	–	–	–	–	–	–	–	1.0 (≈ 0.411 µM)	–	–	–	–	–
C=C1NC(=O)[C@H](Cc2c[nH]c3ccccc23)NC(=O)[C@H](NC(=O)[C@H](CCCCN)NC(=O)[C@@H](N)Cc2ccccc2)CSC[C@@H](C(=O)N[C@H]2C(=O)N3CCC[C@H]3C(=O)NCC(=O)N[C@H](C(=O)N[C@@H](C)C(=O)N[C@@H](CCCNC(=N)N)C(=O)N/C(=C\C)C(=O)NCC(=O)N[C@@H]3CSC[C@@H]4NC(=O)[C@H](Cc5ccc(O)cc5)NC(=O)[C@@H](CSC[C@@H](C(=O)NCc5ccc(Cl)c(Cl)c5)NC4=O)NC(=O)[C@H](CC(N)=O)NC(=O)[C@H](Cc4ccccc4)NC3=O)CS[C@H]2C)NC(=O)[C@H](CC(C)C)NC1=O [Mutacin 1140 - di-chlorophenylalanine]	–	–	–	–	–	–	–	–	–	–	–	8.0 (≈ 3.24 µM)	–	–	–	–
C=C1NC(=O)[C@H](Cc2c[nH]c3ccccc23)NC(=O)[C@H](NC(=O)[C@H](CCCCN)NC(=O)[C@@H](N)Cc2ccccc2)CSC[C@@H](C(=O)N[C@H]2C(=O)N3CCC[C@H]3C(=O)NCC(=O)N[C@H](C(=O)N[C@@H](C)C(=O)N[C@@H](CCCNC(=N)N)C(=O)N/C(=C\C)C(=O)NCC(=O)N[C@@H]3CSC[C@@H]4NC(=O)[C@H](Cc5ccc(O)cc5)NC(=O)[C@@H](CSC[C@@H](C(=O)NCCCCCCCN)NC4=O)NC(=O)[C@H](CC(N)=O)NC(=O)[C@H](Cc4ccccc4)NC3=O)CS[C@H]2C)NC(=O)[C@H](CC(C)C)NC1=O [Mutacin 1140 - diaminoheptane]	–	–	–	–	–	–	–	–	–	–	–	–	2.0 (≈ 0.825 µM)	0.25 (≈ 0.103 µM)	0.5 (≈ 0.206 µM)	–
C=C1NC(=O)[C@H](Cc2c[nH]c3ccccc23)NC(=O)[C@H](NC(=O)[C@H](CCCCN)NC(=O)[C@@H](N)Cc2ccccc2)CSC[C@@H](C(=O)N[C@H]2C(=O)N3CCC[C@H]3C(=O)NCC(=O)N[C@H](C(=O)N[C@@H](C)C(=O)N[C@@H](CCCNC(=N)N)C(=O)N/C(=C\C)C(=O)NCC(=O)N[C@@H]3CSC[C@@H]4NC(=O)[C@H](Cc5ccc(O)cc5)NC(=O)[C@@H](CSC[C@@H](C(=O)NC)NC4=O)NC(=O)[C@H](CC(N)=O)NC(=O)[C@H](Cc4ccccc4)NC3=O)CS[C@H]2C)NC(=O)[C@H](CC(C)C)NC1=O [Mutacin 1140 - methylamine]	–	–	–	–	–	–	–	–	–	–	–	–	–	0.125 (≈ 0.0538 µM)	–	0.5 (≈ 0.215 µM)

Continued, in another order:

C. accolens KPL 1818 MIC (C. accolens KPL 1818) [micrograms per milliliter]	S. aureus ATCC 25923 MIC (S. aureus ATCC 25923) [micrograms per milliliter]	S. pneumonia ATCC 27336 MIC (S. pneumoniae ATCC 27336) [micrograms per milliliter]	C. accolens ATCC 49725 MIC (C. accolens ATCC 49725) [micrograms per milliliter]	M. luteus ATCC 10240 MIC (M. luteus ATCC 10240) [micrograms per milliliter]	Compound	C. accolens KPL 1818 MLC (C. accolens KPL 1818) [micrograms per milliliter]	S. aureus ATCC 25923 MLC (S. aureus ATCC 25923) [micrograms per milliliter]	S. pneumonia ATCC 27336 MLC (S. pneumoniae ATCC 27336) [micrograms per milliliter]	C. accolens ATCC 49725 MLC (C. accolens ATCC 49725) [micrograms per milliliter]	M. luteus ATCC 10240 MLC (M. luteus ATCC 10240) [micrograms per milliliter]	MIC (μg/mL) M. luteus (M. luteus ATCC 10240; listed as chlorophenylalanine conjugate) [µg/mL]	MIC (μg/mL) S. pneumoniae (S. pneumoniae ATCC 27336; listed as di-chlorophenylalanine conjugate) [µg/mL]	MIC (μg/mL) S. pneumoniae (S. pneumoniae ATCC 27336; [1]) [µg/mL]	MIC (μg/mL) M. luteus (M. luteus ATCC 10240) [µg/mL]	MIC (μg/mL) M. luteus (M. luteus ATCC 10240; [1]) [µg/mL]	MIC (μg/mL) S. pneumoniae (S. pneumoniae ATCC 27336) [µg/mL]
0.5	16	0.125	0.25	0.125	S5A:A12S dehydrated: core peptide mutant of mutacin 1140, positions 5, 12 replaced by Alanine and Serine; dehydrated form (FKSWALCTPGCSRTGSFNSYCC; ends and bridges not checked; also: dehydrated form; UniProt O68586 42-63, looked up, variant S5A A12S)	1	32	0.125	0.25	0.25	–	–	–	–	–	–
0.5	32	2	0.5	0.25	R13A:T14A: core peptide mutant of mutacin 1140, positions 13, 14 replaced by Alanine and Alanine (FKSWSLCTPGCAAAGSFNSYCC; UniProt O68586 42-63, looked up, variant R13A T14A)	0.5	32	2	0.5	0.5	–	–	–	–	–	–
0.5	8	2	1	0.5	S5G:T14G: core peptide mutant of mutacin 1140, positions 5, 14 replaced by Glycine and Glycine (FKSWGLCTPGCARGGSFNSYCC; ends and bridges not checked; cysteine pairing not given here; UniProt O68586 42-63, looked up, variant S5G T14G)	1	16	2	1	0.5	–	–	–	–	–	–
0.5	>32	2	0.125	0.25	A12T:T14G: core peptide mutant of mutacin 1140, positions 12, 14 replaced by Threonine and Glycine (FKSWSLCTPGCTRGGSFNSYCC; ends and bridges not checked; cysteine pairing not given here; UniProt O68586 42-63, looked up, variant A12T T14G)	1	>32	2	0.25	0.25	–	–	–	–	–	–
